Results reported in PubChem BioAssay (NCI).
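Where inhibition never reached the appropriate level, the endpoint shown equals the highest concentration tested. Otherwise, values were interpolated linearly from a five-concentration, 48-hour dose response in 96-well plates. Here, GI50 denotes the concentration required for 50% inhibition of growth. TGI: total growth inhibition.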

Experiments:
Assay in all cases: growth of human tumour cells (NCI), 48 h
[1] = system: TK-10 renal
[2] = system: SF-268 CNS
[3] = system: NCI-H522 lung
[4] = system: NCI-H460 lung
[5] = system: OVCAR-8 ovarian
[6] = system: SN12C renal
[7] = system: ACHN renal
[8] = system: UACC-257 melanoma
[9] = system: HCT-15 colon
[10] = system: CCRF-CEM leukemia
[11] = system: A549 NSCLC
[12] = system: NCI-H226 lung
[13] = system: U251 CNS
[14] = system: OVCAR-5 ovarian
[15] = system: PC-3 prostate
[16] = system: SK-MEL-28 melanoma
[17] = system: SK-MEL-5 melanoma
[18] = system: A498 renal
[19] = system: HL-60(TB) leukemia
[20] = system: UACC-62 melanoma
[21] = system: LOX IMVI melanoma
[22] = system: MDA-MB-231 breast
[23] = system: SF-539 CNS
[24] = system: SW-620 colon
[25] = system: M14 melanoma
[26] = system: HCC-2998 colon
[27] = system: NCI/ADR-RES ovarian
[28] = system: EKVX NSCLC
[29] = system: IGROV1 ovarian
[30] = system: CAKI-1 renal
[31] = system: NCI-H23 lung
[32] = system: DU-145 prostate
[33] = system: KM12 colon
[34] = system: MCF7 breast
[35] = system: OVCAR-3 ovarian
[36] = system: SNB-19 CNS
[37] = system: SF-295 CNS
[38] = system: HCT-116 colon
[39] = system: BT-549 breast
[40] = system: HOP-92 NSCLC
[41] = system: K-562 leukemia
[42] = system: HT29 colon
[43] = system: HS 578T breast
[44] = system: UO-31 renal
[45] = system: SK-OV-3 ovarian
[46] = system: SK-MEL-2 melanoma
[47] = system: HOP-62 NSCLC
[48] = system: RPMI-8226 leukemia
[49] = system: OVCAR-4 ovarian
[50] = system: MOLT-4 leukemia
[51] = system: SR leukemia
[52] = system: 786-0 renal
[53] = system: COLO 205 colon

N#CC1=C(N)Oc2c(ccc3ccccc23)C1c1ccccc1 (centres undefined)
GI50 [1]: 7570 nM
TGI [1]: 27000 nM
GI50 [2]: 166 nM
TGI [2]: 15700 nM
GI50 [3]: 22.6 nM
TGI [3]: 1700 nM
GI50 [4]: 38 nM
TGI [4]: 10800 nM
GI50 [5]: 55.1 nM
TGI [5]: 16800 nM
GI50 [6]: 79.3 nM
TGI [6]: 13700 nM
GI50 [7]: 68.1 nM
TGI [7]: 14800 nM
GI50 [8]: 11900 nM
TGI [8]: 29900 nM
GI50 [9]: 47.8 nM
TGI [9]: 10700 nM
GI50 [10]: 43.7 nM
TGI [10]: 41500 nM
GI50 [11]: 84.5 nM
TGI [11]: 18300 nM
GI50 [12]: 463 nM
TGI [12]: 19400 nM
GI50 [13]: 45.4 nM
TGI [13]: 15100 nM
GI50 [14]: 172 nM
TGI [14]: 17200 nM
GI50 [15]: 45.4 nM
TGI [15]: 16800 nM
GI50 [16]: 944 nM
TGI [16]: 20500 nM
GI50 [17]: 34.6 nM
TGI [17]: 451 nM
GI50 [18]: 18.5 nM
TGI [18]: 80.9 nM
GI50 [19]: 29.5 nM
TGI [19]: 274 nM
GI50 [20]: 56.7 nM
TGI [20]: 16000 nM
GI50 [21]: 57.5 nM
TGI [21]: 3250 nM
GI50 [22]: 99 nM
TGI [22]: 7500 nM
GI50 [23]: 31.1 nM
TGI [23]: 158 nM
GI50 [24]: 38.8 nM
TGI [24]: 18600 nM
GI50 [25]: 34.8 nM
TGI [25]: 13600 nM
GI50 [26]: 141 nM
TGI [26]: 6670 nM
GI50 [27]: 27.4 nM
TGI [27]: 1680 nM
GI50 [28]: 315 nM
TGI [28]: 20100 nM
GI50 [29]: 65.4 nM
TGI [29]: 16900 nM
GI50 [30]: 28.3 nM
TGI [30]: 12600 nM
GI50 [31]: 64.8 nM
TGI [31]: 16900 nM
GI50 [32]: 46.8 nM
TGI [32]: 12800 nM
GI50 [33]: 41.9 nM
TGI [33]: 13500 nM
GI50 [34]: 39.3 nM
TGI [34]: 15600 nM
GI50 [35]: 35.7 nM
TGI [35]: 2200 nM
GI50 [36]: 57.9 nM
TGI [36]: 18100 nM
GI50 [37]: 29.9 nM
TGI [37]: 11600 nM
GI50 [38]: 44.3 nM
TGI [38]: 3730 nM
GI50 [39]: 82.1 nM
TGI [39]: 3400 nM
GI50 [40]: 41.3 nM
TGI [40]: 12900 nM
GI50 [41]: 32.2 nM
TGI [41]: 22600 nM
GI50 [42]: 146 nM
TGI [42]: 11100 nM
GI50 [43]: 31.6 nM
TGI [43]: 21300 nM
GI50 [44]: 62.2 nM
TGI [44]: 15200 nM
GI50 [45]: 79.6 nM
TGI [45]: 19000 nM
GI50 [46]: 51.7 nM
TGI [46]: 12600 nM
GI50 [47]: 55.5 nM
TGI [47]: 18600 nM
GI50 [48]: 41.7 nM
TGI [48]: 15000 nM
GI50 [49]: 63 nM
TGI [49]: 14500 nM
GI50 [50]: 57.4 nM
TGI [50]: 16800 nM
GI50 [51]: 33.6 nM
TGI [51]: 22400 nM
GI50 [52]: 50.3 nM
TGI [52]: 13000 nM
GI50 [53]: 190 nM
TGI [53]: 1230 nM

Cc1c2c(cc[n+]1Cc1ccccc1)c1ccc(OCc3ccccc3)cc1n2Cc1ccccc1
GI50 [7]: 1510 nM
TGI [7]: 2840 nM
GI50 [8]: 245 nM
TGI [8]: 789 nM
GI50 [9]: 2010 nM
TGI [9]: 4640 nM
GI50 [10]: 336 nM
TGI [10]: 2090 nM
GI50 [14]: 984 nM
TGI [14]: 2210 nM
GI50 [16]: 515 nM
TGI [16]: 1860 nM
GI50 [17]: 182 nM
TGI [17]: 366 nM
GI50 [19]: 202 nM
TGI [19]: 470 nM
GI50 [20]: 286 nM
TGI [20]: 1210 nM
GI50 [27]: 5780 nM
TGI [27]: > 69300 nM
GI50 [30]: 1670 nM
TGI [30]: 3670 nM
GI50 [32]: 499 nM
TGI [32]: 1740 nM
GI50 [45]: 1110 nM
TGI [45]: 2360 nM
GI50 [48]: 231 nM
TGI [48]: 1950 nM
